Assay results reported in patent publication US8318771B2, “Method of treatment of nephrogenic diabetes insipidus” (Universita' Degli Studi di Bari, priority 2010, dated 2012).

Legend:
MCD4 cells [1] = assay: AQP2 localisation on the apical membrane of MCD4 renal cells in culture; format: cell-based
Experimental: The MCD4 cells, which are in culture and derive from main cells of the renal collecting duct, were treated experimentally with lovastatin. In the cell model, as in the renal tubule in vivo, the presence of AQP2 on the membrane depends on the presence of vasopressin.
(§1) In MCD4 cells in the absence of lovastatin in the culture medium (-Lovastatin) and in control (ctr) conditions, the AQP2 is stored in intracellular vesicles. […] The FK mimes the effect of the vasopressin in in vitro experiments. The same phenomenon occurs in the tubule in vivo following release into the circulation of vasopressin. […] The lovastatin therefore mimes the effect of the FK or the stimulation with vasopressin. […] It is possible to quantize the effect of the treatment with lovastatin in terms of accumulation of AQP2 on the apical membrane by means of surface protein biotinylation experiments.
In vitro tests performed in MCD4 renal cells indicate that the minimum treatment time with statins able to produce an evident shift of the AQP2 in the cells is 6 hours.

MCD4 cells [2] = assay: Surface protein biotinylation of apical membrane AQP2 in MCD4 cells (densitometric analysis, FIG. 1); format: cell-based; conditions: control set to 100%
Source text: as §1
In the absence of lovastatin, only a modest amount of AQP2 is expressed on the apical membrane of the MCD4 cells, and therefore biotinylated, in control cells. The treatment with FK determines an increase of approximately 3 times in the amount of AQP2 expressed on the apical membrane.

For CC(C)c1nc(N(C)S(C)(=O)=O)nc(-c2ccc(F)cc2)c1/C=C/[C@@H](O)C[C@@H](O)CC(=O)O [rosuvastatin], which “effect produced by the lovastatin (AQP2 accumulation on the apical membrane) induced by other statins” value (MCD4 cells [1]; MCD4 cells, hydrosoluble formulation) is on record?
Its value is “induced also”.

With CC[C@H](C)C(=O)O[C@H]1C[C@@H](C)C=C2C=C[C@H](C)[C@H](CC[C@@H]3C[C@@H](O)CC(=O)O3)[C@H]21 [lovastatin] as the molecule, how does the “increase in the AQP2 on the apical membrane” value (MCD4 cells [1]; MCD4 cells, lovastatin in the medium plus treatment with FK) read?
The value was “even more evident”.

What about the “AQP2 accumulation on the apical membrane” value (MCD4 cells [1]; MCD4 control (ctr) cells, 5 μM lovastatin in the culture medium for 72 h) of the same molecule?
Its value is “accumulate a considerable amount of AQP2 on the apical membrane”.

What about the “increase of AQP2 present on the apical membrane (biotinylated)” value (MCD4 cells [2]; 72 h with lovastatin alone) of the same molecule?
The value was “comparable to the one obtained by the FK”.

C=C[C@@]1(C)CC(=O)[C@]2(O)[C@@]3(C)[C@@H](O)CCC(C)(C)[C@@H]3[C@H](O)[C@H](OC(C)=O)[C@@]2(C)O1 [forskolin] was tested. Which “increase in the amount of AQP2 expressed on the apical membrane (biotinylated)” value (MCD4 cells [2]; treatment with FK) did it give?
Its value is “approximately 3 times”.
